Assay results reported in US20240277730A1, “SUPPRESSION OF COVID-19 REPLICATION BY COVID-19 ENTRY INHIBITORS” (Board of Regents of the University of Nebraska, priority 2021, published 2024).

Experiments:
[1] = tested on: SARS-COV-2 South Africa variant (linage: B.1.351); assay: microbe, parasite or virus in culture; format: cell-based; details: Severe acute respiratory syndrome coronavirus 2, Calu-3; read-out: IC50, South African (B.1.351) variant
[2] = tested on: SARS-COV-2 Scotland variant (linage: B.1.222); assay: microbe, parasite or virus in culture; format: cell-based; details: Severe acute respiratory syndrome coronavirus 2, Calu-3

| SMILES | IC50 [1] [µM] | IC50 [2] [µM] |
| --- | --- | --- |
| O=C1Nc2cc(C(F)(F)F)ccc2Oc2ccsc21 [formula (IIa), 7-(trifluoromethyl)benzo[b]-thieno[2,3-f][1,4]oxazepin-10(9H)-one] | 3 | 1.39 |
| CN1C(=O)c2ccccc2[S+]([O-])c2cc([N+](=O)[O-])ccc2S1(=O)=O (stereo not shown) [formula (Ia), 6-methyl-2-nitrodibenzo[d,g]-[1,6,2]dithiazocin-7(6H)-one 5,5, 12-trioxide] | 9.27 | 2.64 |
